The record followed here is US5804555A, “Antioxidant” (Morinaga Milk Industry Co., Ltd., priority 1992, dated 1998).

A short description of assay [1]: Test 2: inducing period of linoleic acid oxidation (days until absorbance of 0.2 is exceeded). The following applies: single addition, final concentration 0.1% in linoleic acid. It counts as biochemical. How it is done:
The following 11 kinds of sample were prepared.
Sample 2: A sample prepared by adding a hydrolysate of lactoferrin (prepared by the same method as in the Example 2) to linoleic acid to achieve a final concentration of 0.1%;
Sample 3: A sample prepared by adding peptides (prepared by the same method as in the Example 3) to linoleic acid to achieve a final concentration of 0.1%;
Sample 4: A sample prepared by adding vitamin E (dl-α tocopherol the same one as in the Test 1) to linoleic acid to achieve a final concentration of 0.1%;
Sample 5: A sample prepared by adding superoxide dismutase (manufactured by Sigma Company) to linoleic acid to achieve a final concentration of 0.1%;
Sample 6: A sample prepared by adding β-carotene (manufactured by Nakaraitesk Company) to linoleic acid to achieve a final concentration of 0.1%;
Sample 7: A sample prepared by adding vitamin C (manufactured by Nakaraitesk Company) to linoleic acid to achieve a final concentration of 0.1%; […]
Absorbance was measured by the same method as in the Test 1, and with the number of days until an absorbance of 0.2 is exceeded as the inducing period, antioxidant effect was tested.

Assay [2] can be described thus: Test 1: antioxidant effect on linoleic acid, peroxides by ferric thiocyanate method. It counts as biochemical. To be noted: 0.2% added to linoleic acid, 60° C. The protocol:
A sample was prepared by adding dl-α tocopherol (manufactured by Wako Jun-yaku Kogyo Company), bovine lactoferrin (manufactured by Sigma Company), hydrolysate of lactoferrin (prepared by the same method as in the Example 2), or peptide (prepared by the same method as in the Example 3) to a final concentration of 0.2% (weight percentage; same applies hereafter except for the degree of decomposition) to commercially available linoleic acid (manufactured by Wako Jun-Yaku Kogyo Company) containing no additive. Hereafter, the thus prepared samples are individually referred to as […].
Antioxidant effect of the individual samples was tested by the method of Mitsuda et al.(Eiyo to Shokuryo, Vol. 19, p. 210, 1966) described below.
The above-mentioned samples were added to a mixed solution containing 10 ml of ethanol, 10 ml of 0.1M phosphate buffer solution (pH: 7.0), and 5 ml of deionized water so as to achieve a final concentration of linoleic acid of […](mol/l). This solution was placed in a vial bottle having a capacity of 50 ml, and the closely plugged bottle was held in an incubator at 60° C. The total volume was always adjusted to 25 ml by reducing the above-mentioned ionized water, depending upon the quantity of added sample. At prescribed time intervals, 0.1 ml was sampled from this vial bottle to measure the quantity of peroxides by the following ferric thiocyanate method.
To the sample solution in an amount of 0.1 ml, 4.7 ml of 75% ethanol, 0.1 ml of 30% ammonium rhodanide, and 0.1 ml of 3.5% hydrochloric acid solution of 2×10^-2 M ferrous chloride were added, and absorbance at 500 nm was measured upon the lapse of just three minutes.

For `Cc1c(C)c2c(c(C)c1O)CCC(C)(CCCC(C)CCCC(C)CCCC(C)C)O2` (racemic) [Sample 2, dl-α tocopherol], the Inducing period in assay [1] was found to be 8 days. Also, the “Degree of peroxidation (absorbance at 500 nm)” value came out at 0 in assay [2] (period of preservation 0 days); 0.19 in assay [2] (period of preservation 3 days); 0.16 in assay [2] (period of preservation 6 days); 0.16 in assay [2] (period of preservation 10 days); 0.21 in assay [2] (period of preservation 13 days).

In the case of `O=C1O[C@H]([C@@H](O)CO)C(O)=C1O` [Vitamin C, ascorbic acid], the Inducing period in assay [1] came to 8 days.

Regarding `CC1=C(/C=C/C(C)=C/C=C/C(C)=C/C=C/C=C(C)/C=C/C=C(C)/C=C/C2=C(C)CCCC2(C)C)C(C)(C)CCC1` [β-carotene], the Inducing period in assay [1] was found to be 14 days.

In assay [1], Superoxide dismutase gave an Inducing period of 10 days.
